Reference: patent publication US20140303164A1, “THERAPEUTIC COMPOUNDS” (Gilead Sciences, Inc., priority 2013, published 2014)

Key:
HIV-IIIb = assay: Test A: Antiviral Assay in MT4 Cells; assay type: cell-based, HIV-1; details: Human immunodeficiency virus 1, IIIB, MT4, 120 h; for inhibition at 0.2 µM: read-out: % inhibition at 0.2 μM; for inhibition at 2 µM: read-out: % inhibition at 2 μM
Protocol: Test A: Antiviral Assay in MT4 Cells
MT-4 cells were next mixed with HIV-IIIb at an m.o.i of 0.003 for 1 hour, after which time 35 μL of virus/cell mixture (2000 cells) was immediately added to each well containing 40 μL of diluted compound. The plates were then incubated at 37° C. for 5 days. […] Cell lysis was carried out by incubating at room temperature for 10 min and then chemiluminescence was read.

[1] = Test B: Cytotoxicity Assay; assay type: cell-based; details: human, uninfected MT-4 cells, same protocol as Test A
Outline: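 Uninfected MT-4 cells (2000 per well) incubated with diluted compound at 37° C. for 5 days, following the antiviral protocol without HIV-IIIb.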

Row | SMILES | inhibition at 0.2 µM (HIV-IIIb) [%] | inhibition at 2 µM (HIV-IIIb) [%] | CC50 at 5 days [1] [µM]
1 | COC(=O)Nc1nn(C)c2c(-c3ccc(C#CC(C)(C)O)nc3[C@H](Cc3cc(F)cc(F)c3)NC(=O)Cn3nc(C(F)F)c4c3C(F)(F)[C@@H]3C[C@H]43)ccc(Cl)c12 [Compound 90D, methyl (4-chloro-7-(2-((S)-1-(2-((3b-S,4aR)-3-(difluoromethyl)-5,5-difluoro-3b,4,4a,5-tetrahydro-1H-cyclopropa[3,4]cyclopenta[1,2-c]pyrazol-1-yl)acetamido)-2-(3,5-difluorophenyl)ethyl)-6-(3-hydroxy-3-methylbut-1-yn-1-yl)pyridin-3-yl)-1-methyl-1H-indazol-3-yl)carbamate] | 97 | 97 | 7.62
2 | CC(C)(O)C#Cc1ccc(-c2cccn3c(NCC(F)(F)F)nnc23)c([C@H](Cc2cc(F)cc(F)c2)NC(=O)Cn2nc(C(F)F)c3c2C(F)(F)[C@@H]2C[C@H]32)n1 [Compound 117F, 2-((3b-S,4aR)-3-(difluoromethyl)-5,5-difluoro-3b,4,4a,5-tetrahydro-1H-cyclopropa[3,4]cyclopenta[1,2-c]pyrazol-1-yl)-N—((S)-2-(3,5-difluorophenyl)-1-(6-(3-hydroxy-3-methylbut-1-yn-1-yl)-3-(3-((2,2,2-trifluoroethyl)amino)-[1,2,4]triazolo[4,3-a]pyridin-8-yl)pyridin-2-yl)ethyl)acetamide] | 93 | 100 | 27.8
3 | CN(C)C(=O)c1nn(CC(=O)N[C@@H](Cc2cc(F)cc(F)c2)c2nc(C#CC(C)(C)O)ccc2-c2ccc(Cl)c3c(NS(C)(=O)=O)nn(C)c23)c2c1[C@H]1C[C@H]1C2(F)F [Compound 164, (3bS,4aR)-1-(2-(((S)-1-(3-(4-chloro-1-methyl-3-(methylsulfonamido)-1H-indazol-7-yl)-6-(3-hydroxy-3-methylbut-1-yn-1-yl)pyridin-2-yl)-2-(3,5-difluorophenyl)ethyl)amino)-2-oxoethyl)-5,5-difluoro-N,N-dimethyl-3b,4,4a,5-tetrahydro-1H-cyclopropa[3,4]cyclopenta[1,2-c]pyrazole-3-carboxamide] | 96 | 97 | 40.5
4 | Cn1nc(NS(N)(=O)=O)c2cccc(-c3ccc(C#CC(C)(C)O)nc3[C@H](Cc3cc(F)cc(F)c3)NC(=O)Cn3nc(C(F)F)c4c3C(F)(F)[C@@H]3C[C@H]43)c21 [Compound 54, 2-((3b-S,4aR)-3-(difluoromethyl)-5,5-difluoro-3b,4,4a,5-tetrahydro-1H-cyclopropa[3,4]cyclopenta[1,2-c]pyrazol-1-yl)-N—((S)-2-(3,5-difluorophenyl)-1-(6-(3-hydroxy-3-methylbut-1-yn-1-yl)-3-(1-methyl-3-(sulfamoylamino)-1H-indazol-7-yl)pyridin-2-yl)ethyl)acetamide] | 98 | 98 | 8.08
5 | Cn1nc(N)c2cccc(-c3ccc(C#CC(C)(C)O)nc3[C@H](Cc3cc(F)cc(F)c3)NC(=O)Cn3nc(C(F)(F)F)c4c3C(F)(F)[C@@H]3C[C@H]43)c21 [Compound 25, N—((S)-1-(3-(3-amino-1-methyl-1H-indazol-7-yl)-6-(3-hydroxy-3-methylbut-1-yn-1-yl)pyridin-2-yl)-2-(3,5-difluorophenyl)ethyl)-2-((3b-S,4aR)-5,5-difluoro-3-(trifluoromethyl)-3b,4,4a,5-tetrahydro-1H-cyclopropa[3,4]cyclopenta[1,2-c]pyrazol-1-yl)acetamide] | 89 | 89 | 9.14
6 | Cn1nc(NS(C)(=O)=O)c2c(Cl)ccc(-c3ccc(C#CC(C)(C)O)nc3[C@H](Cc3cc(F)cc(F)c3)NC(=O)Cn3nc4c(c3Cl)CCCC4)c21 [Compound 125D, (S)—N-(1-(3-(4 chloro-1-methyl-3-(methylsulfonamido)-1H-indazol-7-yl)-6-(3-hydroxy-3-methylbut-1-yn-1-yl)pyridin-2-yl)-2-(3,5-difluorophenyl)ethyl)-2-(3-chloro-4,5,6,7-tetrahydro-2H-indazol-2-yl)acetamide] | 96 | 97 | 13.6
7 | Cn1nc(NC(=O)CN2CCCC2)c2c(Cl)ccc(-c3ccc(C#CC(C)(C)O)nc3[C@H](Cc3cc(F)cc(F)c3)NC(=O)Cn3nc(C(F)F)c4c3C(F)(F)[C@@H]3C[C@H]43)c21 [Compound 100, N—((S)-1-(3-(4-chloro-1-methyl-3-(2-(pyrrolidin-1-yl)acetamido)-1H-indazol-7-yl)-6-(3-hydroxy-3-methylbut-1-yn-1-yl)pyridin-2-yl)-2-(3,5-difluorophenyl)ethyl)-2-((3b-S,4aR)-3-(difluoromethyl)-5,5-difluoro-3b,4,4a,5-tetrahydro-1H-cyclopropa[3,4]cyclopenta[1,2-c]pyrazol-1-yl)acetamide] | 99 | 99 | 5.14
8 | Cn1cc(-c2ccc(-c3cccc4c(NS(C)(=O)=O)nn(C)c34)c([C@H](Cc3cc(F)cc(F)c3)NC(=O)Cn3nc(C(F)(F)F)c4c3C(F)(F)[C@@H]3C[C@H]43)n2)cn1 [Compound 60, 2-((3bS,4aR)-5,5-difluoro-3-(trifluoromethyl)-3b,4,4a,5-tetrahydro-1H-cyclopropa[3,4]cyclopenta[1,2-c]pyrazol-1-yl)-N—((S)-2-(3,5-difluorophenyl)-1-(6-(1-methyl-1H-pyrazol-4-yl)-3-(1-methyl-3-(methylsulfonamido)-1H-indazol-7-yl)pyridin-2-yl)ethyl)acetamide] | 86 | 96 | 14.3
9 | Cn1nc(N)c2c(Cl)ccc(-c3ccc(C#CC(C)(C)O)nc3[C@H](Cc3cc(F)cc(F)c3)NC(=O)Cn3nc(C(F)(F)F)c4c3C(F)(F)[C@@H]3C[C@H]43)c21 [Compound 55C, N—((S)-1-(3-(3-amino-4-chloro-1-methyl-1H-indazol-7-yl)-6-(3-hydroxy-3-methylbut-1-yn-1-yl)pyridin-2-yl)-2-(3,5-difluorophenyl)ethyl)-2-((3b-S,4aR)-5,5-difluoro-3-(trifluoromethyl)-3b,4,4a,5-tetrahydro-1H-cyclopropa[3,4]cyclopenta[1,2-c]pyrazol-1-yl)acetamide] | 92 | 92 | 9.56
10 | CN(C)CC(=O)Nc1nn(C)c2c(-c3ccc(C#CC(C)(C)O)nc3[C@H](Cc3cc(F)cc(F)c3)NC(=O)Cn3nc(C(F)F)c4c3C(F)(F)[C@@H]3C[C@H]43)ccc(Cl)c12 [Compound 99B, N—((S)-1-(3-(4-chloro-3-(2-(dimethylamino)acetamido)-1-methyl-1H-indazol-7-yl)-6-(3-hydroxy-3-methylbut-1-yn-1-yl)pyridin-2-yl)-2-(3,5-difluorophenyl)ethyl)-2-((3b-S,4aR)-3-(difluoromethyl)-5,5-difluoro-3b,4,4a,5-tetrahydro-1H-cyclopropa[3,4]cyclopenta[1,2-c]pyrazol-1-yl)acetamide] | 100 | 100 | 6.37
11 | CCn1nc(N)c2cccc(-c3ccc(C#CC(C)(C)O)nc3[C@H](Cc3cc(F)cc(F)c3)NC(=O)Cn3nc(C(F)(F)F)c4c3C(F)(F)[C@@H]3C[C@H]43)c21 [Compound 45G, N—((S)-1-(3-(3-amino-1-ethyl-1H-indazol-7-yl)-6-(3-hydroxy-3-methylbut-1-yn-1-yl)pyridin-2-yl)-2-(3,5-difluorophenyl)ethyl)-2-((3b-S,4aR)-5,5-difluoro-3-(trifluoromethyl)-3b,4,4a,5-tetrahydro-1H-cyclopropa[3,4]cyclopenta[1,2-c]pyrazol-1-yl)acetamide] | 92 | 92 | 10.4
12 | Cn1nc(N)c2cccc(-c3ccc(C#CC(C)(C)O)nc3[C@H](Cc3cc(F)cc(F)c3)NC(=O)Cn3nc(C(F)F)c4c3C(F)(F)[C@@H]3C[C@H]43)c21 [Compound 32, N—((S)-1-(3-(3-amino-1-methyl-1H-indazol-7-yl)-6-(3-hydroxy-3-methylbut-1-yn-1-yl)pyridin-2-yl)-2-(3,5-difluorophenyl)ethyl)-2-((3b-S,4aR)-3-(difluoromethyl)-5,5-difluoro-3b,4,4a,5-tetrahydro-1H-cyclopropa[3,4]cyclopenta[1,2-c]pyrazol-1-yl)acetamide] | 84 | 84 | 9.18
13 | Cn1nc(NS(C)(=O)=O)c2c(Cl)ccc(-c3ccc(C#CC(C)(C)O)nc3[C@H](Cc3cc(F)cc(F)c3)NC(=O)Cc3noc4ccccc34)c21 [Compound 198, (S)-2-(benzo[d]isoxazol-3-yl)-N-(1-(3-(4 chloro-1-methyl-3-(methylsulfonamido)-1H-indazol-7-yl)-6-(3-hydroxy-3-methylbut-1-yn-1-yl)pyridin-2-yl)-2-(3,5-difluorophenyl)ethyl)acetamide] | 64 | 98 | 23.7
14 | CC(C)(O)C#Cc1ccc(-c2cccc3c(N)nccc23)c([C@H](Cc2cc(F)cc(F)c2)NC(=O)Cn2nc(C(F)(F)F)c3c2C(F)(F)[C@@H]2C[C@H]32)n1 [Compound 73, N—((S)-1-(3-(1-aminoisoquinolin-5-yl)-6-(3-hydroxy-3-methylbut-1-yn-1-yl)pyridin-2-yl)-2-(3,5-difluorophenyl)ethyl)-2-((3b-S,4aR)-5,5-difluoro-3-(trifluoromethyl)-3b,4,4a,5-tetrahydro-1H-cyclopropa[3,4]cyclopenta[1,2-c]pyrazol-1-yl)acetamide] | 86 | 86 | 4.49
